In patent US12138320B2, “Composition and methods for tumor imaging and treatment” (The University of Chicago, priority 2020, dated 2024):

Tests used:
NCEH1 [1] = target: T1, NCEH1 (Homo sapiens, UniProt Q6PIU2); assay: Gel-based competitive ABPP (FP-Rho) of cancer cells treated in situ (live cells); assay type: cell-based; details: for potency against NCEH1 compared to JW199: MDA-MB231 cells treated in situ, 0-25 μM (FIG. 5B)
T1 construct: serine hydrolase activity in membrane proteome fractions of MDA-MB231 breast cancer cells treated with the indicated concentrations; endogenous in cells; host or cells: PC3 prostate cancer cells; MDA-MB231 breast cancer cells
T1 sequence (Q6PIU2 1-408): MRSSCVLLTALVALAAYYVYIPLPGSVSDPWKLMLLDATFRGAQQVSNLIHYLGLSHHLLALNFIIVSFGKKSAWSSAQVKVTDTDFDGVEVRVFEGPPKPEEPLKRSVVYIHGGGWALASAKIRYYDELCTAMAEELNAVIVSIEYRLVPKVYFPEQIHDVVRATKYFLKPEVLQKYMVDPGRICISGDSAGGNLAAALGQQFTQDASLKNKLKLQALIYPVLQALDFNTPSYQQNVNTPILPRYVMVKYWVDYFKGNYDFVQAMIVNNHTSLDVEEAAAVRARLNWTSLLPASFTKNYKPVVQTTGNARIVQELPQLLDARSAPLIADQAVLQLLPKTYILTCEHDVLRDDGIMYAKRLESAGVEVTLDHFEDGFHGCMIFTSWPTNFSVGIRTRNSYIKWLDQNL
Protocol: (§1) Proteome Preparation: Human PC3 and MDA-MB231 cells were grown in Roswell Park Memorial Institute (RPMI) medium and Dulbecco's Modified Eagle Medium (DMEM), respectively, supplemented with 10% fetal bovine serum (FBS) and 2 mM L-glutamine, and cultured in a humidified 5% CO2 incubator at 37° C. Cells were washed twice with phosphate buffered saline (PBS, pH 7.5), collected by scraping, resuspended in 0.2 ml PBS, sonicated, and fractionated via centrifugation (100,000×g, 45 min) into a pellet (containing membrane proteins) and supernatant (containing soluble proteins). For murine proteomes, mouse tissues were Dounce-homogenized on ice in cold PBS, followed by a low-speed spin (1,400×g, 5 min) to remove debris. After sonication, the membrane and soluble proteomes were fractionated as described above. All sample pellets were washed and resuspended in PBS via sonication. Protein concentrations were determined using a Bradford protein assay kit (Bio-Rad, Hercules, California, United States of America)). Samples were stored at −80° C. until use.
Cellular JW199 Treatments: JW199 was dissolved in dimethyl sulfoxide (DMSO) vehicle, which was diluted into media or buffer before addition to cells or proteomes, respectively. For in vitro proteome experiments, the final DMSO concentration was 4%. For live cell (in situ) treatments, 2×10^6 cells were seeded in 6 cm dishes (100% confluency) 24 hours prior to JW199 treatment in serum-free media. At the end of the experiment, cells were washed and collected, as described above, for gel-based activity profiling.
Gel-based Activity Profiling: Cell lysates were treated with 1 μM fluorophosphonate-rhodamine (FP-rho) for 30 min at room temperature (50 μL total reaction volume). Reactions were quenched with one volume of standard 4× sodium dodecyl sulfate/polyacrylamide gel electrophoresis (SDS/PAGE) reducing sample buffer, resolved on 10% acrylamide SDS/PAGE gels, and visualized in-gel with a fluorescence scanner sold under the tradename CHEMIDOC™ MP (Bio-Rad, Hercules, California, United States of America). Densitometric quantification of band intensities were used to calculate the percent inhibition via JW199. 50% inhibitory concentration (IC50) values were determined from dose-response curves constructed in GraphPad Prism software from three independent replicates for each inhibitor concentration. For competitive ABPP with JW576, tumor lysates were treated with 1 μM JW576 for 30 min at 37° C. (50 μL total reaction volume). Competitive ABPP was then conducted as described above. NCEH1 activity was calculated by densitometric quantification (ImageJ software; National Institutes of Health (NIH), Bethesda, Maryland, United States of America) of JW576-labeled band intensity (BODIPY fluorescence) from three independent replicates.

[2] = test system: other detected serine hydrolase targets; assay: Family-wide gel-based profiling of serine hydrolases in MDA-MB231 and PC3 cells (selectivity); assay type: cell-based, human; details: live cells
Protocol: as §1, with “For murine proteomes, mouse tissues were Dounce-homogenized on ice in cold PBS, followed by a low-speed spin (1,400×g, 5 min) to remove debris. After sonication, the membrane and soluble proteomes were fractionated as described above. All sample pellets were washed and resuspended in PBS via sonication.” left out, “Samples were stored at −80° C. until use.” left out
Gel-based Activity Profiling: Cell lysates were treated with 1 μM fluorophosphonate-rhodamine (FP-rho) for 30 min at room temperature (50 μL total reaction volume). Reactions were quenched with one volume of standard 4× sodium dodecyl sulfate/polyacrylamide gel electrophoresis (SDS/PAGE) reducing sample buffer, resolved on 10% acrylamide SDS/PAGE gels, and visualized in-gel with a fluorescence scanner sold under the tradename CHEMIDOC™ MP (Bio-Rad, Hercules, California, United States of America). Densitometric quantification of band intensities were used to calculate the percent inhibition via JW199. […]

NCEH1 [3] = target: T2, NCEH1 (Mus musculus, UniProt Q8BLF1); assay: Gel-based competitive ABPP of murine tissue membrane proteomes after JW480 pre-treatment; assay type: in vivo; details: JW480 80 mg/kg; brain, heart, kidney, lung, liver, spleen membrane proteomes
T2 construct: For murine proteomes, mouse tissues were Dounce-homogenized on ice in cold PBS; from tissue; host or cells: athymic nude mice: heart, kidney, lung, liver, brain, spleen and other organs
T2 sequence (Q8BLF1 1-408): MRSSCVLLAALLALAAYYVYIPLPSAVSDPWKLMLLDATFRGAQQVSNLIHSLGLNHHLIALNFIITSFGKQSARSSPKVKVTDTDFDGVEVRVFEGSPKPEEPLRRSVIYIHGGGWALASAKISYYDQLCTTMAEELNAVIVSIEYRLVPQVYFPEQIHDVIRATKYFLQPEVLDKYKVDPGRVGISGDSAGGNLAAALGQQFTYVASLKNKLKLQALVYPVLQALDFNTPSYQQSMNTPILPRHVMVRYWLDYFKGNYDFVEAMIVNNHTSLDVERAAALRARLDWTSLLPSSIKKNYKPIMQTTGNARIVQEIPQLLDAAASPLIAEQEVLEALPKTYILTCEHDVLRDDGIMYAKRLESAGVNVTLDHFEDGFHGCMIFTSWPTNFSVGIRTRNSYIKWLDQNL
Text: FIGS. 9A and 9B: Gel-based competitive activity-based protein profiling (ABPP) profiles of several murine membrane proteomes following treatment with fluorine-18-labeled 2-isopropylphenyl-(4-(2-fluoroethoxy)phenethyl)carbamate ([^18F]JW199) with and without 2-isopropylphenyl)-(2-(naphthalen-2-yl)ethyl)carbamate (JW480; 80 milligrams per kilogram (mg/kg)). FIG. 9A is a schematic drawing showing the chemical structure of JW480. FIG. 9B is a composite gel image of the ABPP profiles of the murine membrane proteomes from brain, heart, kidney, lung, liver and spleen following treatment with [^18F]JW199 with or without JW480.
Proteome Preparation: Human PC3 and MDA-MB231 cells were grown in Roswell Park Memorial Institute (RPMI) medium and Dulbecco's Modified Eagle Medium (DMEM), respectively, supplemented with 10% fetal bovine serum (FBS) and 2 mM L-glutamine, and cultured in a humidified 5% CO2 incubator at 37° C. […] Protein concentrations were determined using a Bradford protein assay kit (Bio-Rad, Hercules, California, United States of America)). […]
Gel-based Activity Profiling: Cell lysates were treated with 1 μM fluorophosphonate-rhodamine (FP-rho) for 30 min at room temperature (50 μL total reaction volume). […] Densitometric quantification of band intensities were used to calculate the percent inhibition via JW199. […]

NCEH1 [4] = target: T2, NCEH1; assay: In vivo competition: oral JW480 pre-treatment, then i.v. [18F]JW199 and PET-CT
Protocol: In vivo microPET/CT imaging: All imaging was performed by the Integrated Small Animal Imaging Research Resource (iSAIRR) at the University of Chicago (Chicago, Illinois, United States of America) on a β-Cube and X-Cube (Molecubes NV, Ghent, Belgium). Athymic nude mice (males and females, aged 6 to 8 weeks; HSD strain, Harlan-Envigo, Indianapolis, Indiana, United States of America) were anesthetized via inhalation with 1.5-2% isoflurane and injected with approximately 150 μCi (5.55 Megabecquerel (MBq)) of [^18F]JW199 in 150 μL of physiologic saline through the lateral tail vein, followed by awake incubation for 1 hour and 45 minutes. MicroCT images were acquired using the general purpose protocol, with energy of 50 KeV and a tube current of 100 μA. Respiration rate and body temperature of the animal were constantly monitored during the entire scanning period with the p-Cube and X-Cube onboard monitoring system. A 1 hr dynamic PET acquisition was started 2 hours after [^18F]JW199 injection. Dynamic reconstruction was performed for 6 frames of 10 minutes each using a three-dimensional (3D) OSEM algorithm with 400 μm isometric voxel size. For competition studies, mice were pretreated with either 80 mg/kg JW480 or vehicle (polyethylene glycol 300 (PEG300)) via oral gavage, followed 4 hours later by dosing with [^18F]JW199 and imaging as described. For the MDA-MB231 study, [^18F]JW199 injection was followed immediately by dynamic PET acquisition (90 min) and microCT scanning as detailed above. Dynamic PET image reconstruction included 9 frames of 10 minutes each.
Dynamic reconstruction was performed using a three-dimensional OSEM algorithm with 400 μm isometric voxel size. […] 3D regions of interest (ROIs) were drawn and standardized uptake values (SUVs) and percent injected dose per cubic centimeter of tissue (% ID/cc) were calculated for each ROI and time point. % ID/cc was calculated as a ratio of tissue radioactivity concentration (mCi/g) at time of scan to total injected activity (millicurie (mCi)) at time of scan.

CC(C)c1ccccc1OC(=O)NCCc1ccc(OCCF)cc1 [JW199, 2-isopropylphenyl-(4-(2-fluoroethoxy)phenethyl)carbamate]
IC50 values, inhibition of NCEH1 in live cells (NCEH1 [1]; in situ, MDA-MB231 and PC3 cells): low nM range | selectivity over other detected serine hydrolase targets [2]: > 1,000 fold

CC(C)c1ccccc1OC(=O)NCCc1ccc(OCCCF)cc1 [JW245, 2-isopropylphenyl-(4-(3-fluoropropoxy)phenethyl)carbamate]
potency against NCEH1 compared to JW199 (NCEH1 [1]): less potent

CC(C)c1ccccc1OC(=O)NCCNC(=O)c1ccc2cc(OCCF)ccc2c1 [JW291, 2-isopropylphenyl (2-(6-(2-fluoroethoxy)-2-naphthamido)ethyl)carbamate]
potency against NCEH1 compared to JW199 (NCEH1 [1]): less potent

CC(C)c1ccccc1OC(=O)NCCc1ccc2ccccc2c1 [JW480, 2-isopropylphenyl-(2-(naphthalen-2-yl)ethyl)carbamate]
inhibition of NCEH1 in tissues of pre-treated mice (NCEH1 [3]): specific and significant inhibition | effect of pre-treatment on radioactivity in urine and brain (NCEH1 [4]; JW480 80 mg/kg oral, 4 hours before tracer): slightly elevated radioactivity | effect of pre-treatment on [18F]JW199 radiotracer signal in heart, lung and kidney (NCEH1 [4]; JW480 80 mg/kg oral, 4 hours before tracer, 3 hours post injection): significantly diminished radiotracer signal | [18F]JW199 accumulation in kidneys and heart of competitor-treated mouse (PET-CT images) (NCEH1 [4]; JW480 oral, then i.v. tracer): visibly decreased
